Source: ChEMBL document CHEMBL5038605, “Probing the Allosteric Inhibition Mechanism of a Spike Protein Using Molecular Dynamics Simulations and Active Compound Identifications” (J Med Chem, 2022)
Activity calls are given as the source filed them. The rule behind the calls is not given here.

Test system: SARS-CoV-2
Experiment: Antiviral activity against SARS-CoV-2 infected in vero E6 cells assessed as inhibition of viral replication at 100 uM preincubated for 1 hr followed by viral infection for 24 hrs by qRT-PCR analysis
Type: functional, organism-based
Details: Severe acute respiratory syndrome coronavirus 2, Vero C1008, time 25.0 hrs

SMILES | Activity
O=C(O)c1cccc(-c2ccc(CNCCc3ccccc3)o2)c1 | Active
CC(=O)N1CCN(c2nc(C)cc(Nc3ccccc3)n2)CC1 | Active
Cc1nn(-c2ccccc2)c(Oc2ccccc2)c1CCC(=O)Nc1ccccc1 | Active
CCn1ccc(-c2nc(C)nn2-c2cc(S(N)(=O)=O)ccc2F)cc1=O | Active
Cn1cc(-c2cc3n(n2)CCC(=O)N3CC(=O)NCc2ccco2)c2ccccc21 | Active
Cc1ccc2nc(C34CC5CC(CC(C5)C3)C4)cc(C(=O)O)c2c1 | Active
O=C(O)c1ccc(OCc2cccc3ccccc23)cc1 | Active

Test system: SARS-CoV-2
Experiment: Antiviral activity against SARS-CoV-2 infected in vero E6 cells assessed as inhibition of viral replication at 100 uM preincubated for 1 hr followed by viral infection for 2 hrs by qRT-PCR analysis
Type: functional, organism-based
Details: Severe acute respiratory syndrome coronavirus 2, Vero C1008, time 3.0 hrs

SMILES | Activity
O=C(O)c1cccc(-c2ccc(CNCCc3ccccc3)o2)c1 | Active
